Drawing on patent US11186577B2, “Vasopressin receptor antagonists and products and methods related thereto” (BlackThorn Therapeutics, Inc., priority 2017, dated 2021), this text covers IC50 for seven compounds.

Experiment [1] has as its target human Arginine Vasopressin Receptor V2 (AVPR2) (Homo sapiens (Human), UniProt P30518). In words: Vasopressin V2 receptor antagonist assay (cAMP TR-FRET, 1321N1 cells). The experiment is classed as cell-based. Background: TR-FRET usually uses a lanthanide donor and a delayed reading to cut background.
Experiment [2] concerns the target human Arginine Vasopressin Receptor 1b (AVPR1b) (Homo sapiens (Human), UniProt P47901). The experiment is described as follows: Vasopressin V1B receptor antagonist assay (AVP-evoked calcium, FLIPR, CHO-AVPR1b cells). The experiment is classed as cell-based. The method in brief: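 CHO cells expressing human AVPR1b, loaded with Calcium-6 dye, were preincubated with compound for 15 min at 37 °C, then challenged with AVP at its daily-determined EC80. Calcium fluorescence was followed for 3 min on FLIPR; 10-point, 1:3 concentration curves gave antagonism as reduced AVP response.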

Some results are limits rather than exact numbers.

Sequence of human Arginine Vasopressin Receptor V2 (AVPR2) (P30518 whole entry): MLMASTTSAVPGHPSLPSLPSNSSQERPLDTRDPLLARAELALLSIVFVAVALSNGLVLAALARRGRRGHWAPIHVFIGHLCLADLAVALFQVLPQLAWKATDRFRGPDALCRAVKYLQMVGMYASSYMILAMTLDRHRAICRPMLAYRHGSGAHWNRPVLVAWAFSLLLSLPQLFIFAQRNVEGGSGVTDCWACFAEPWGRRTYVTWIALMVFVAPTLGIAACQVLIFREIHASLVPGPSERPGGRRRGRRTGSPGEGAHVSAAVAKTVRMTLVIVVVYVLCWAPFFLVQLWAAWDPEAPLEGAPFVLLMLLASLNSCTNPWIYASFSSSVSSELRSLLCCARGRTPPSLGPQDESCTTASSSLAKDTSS
Sequence of human Arginine Vasopressin Receptor 1b (AVPR1b) (P47901 whole entry): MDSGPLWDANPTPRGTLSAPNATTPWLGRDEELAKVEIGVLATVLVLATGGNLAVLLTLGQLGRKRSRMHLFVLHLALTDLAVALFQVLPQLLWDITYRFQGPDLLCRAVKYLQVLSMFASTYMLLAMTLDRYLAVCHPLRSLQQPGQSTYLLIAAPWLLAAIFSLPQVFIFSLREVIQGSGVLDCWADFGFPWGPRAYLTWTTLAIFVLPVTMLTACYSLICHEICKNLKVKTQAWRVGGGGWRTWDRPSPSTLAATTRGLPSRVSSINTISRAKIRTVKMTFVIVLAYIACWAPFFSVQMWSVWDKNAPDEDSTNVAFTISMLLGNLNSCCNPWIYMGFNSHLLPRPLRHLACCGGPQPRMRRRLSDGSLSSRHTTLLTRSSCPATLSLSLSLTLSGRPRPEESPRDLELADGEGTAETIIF

As for `CC1c2nnc(C3CC4(C3)CN(c3ncc(F)cn3)C4)n2-c2ccc(Cl)cc2CN1C(=O)OC1(C)CC1` (centres unmarked) [compound 173], the IC50 in experiment [1] and in experiment [2] was > 1000 nM throughout.
As to `CC1c2nnc(C3CC4(C3)CN(c3ccc(F)cn3)C4)n2-c2ccc(Cl)cc2CN1C(=O)C1(F)CC1` (centres unmarked) [compound 174], the IC50 in experiment [1] and in experiment [2] was > 1000 nM in each case.
As to `CC1c2nnc(C3CC4(C3)CN(c3ncccn3)C4)n2-c2ccc(Cl)cc2CN1C(=O)C1(F)CC1` (centres unmarked) [compound 175], the IC50 in experiment [1] and in experiment [2] was > 1000 nM in each case.
As to `CC1c2nnc(C3CC4(C3)CN(c3cnccn3)C4)n2-c2ccc(Cl)cc2CN1C(=O)C1(F)CC1` (centres unmarked) [compound 177], the IC50 in experiment [1] and in experiment [2] was > 1000 nM each time.
Turning to `COC(=O)N1Cc2cc(Cl)ccc2-n2c(C3CC4(C3)CN(c3cccc(C)n3)C4)nnc2C1C` (centres unmarked) [compound 180], the IC50 – broadly, the concentration that gives 50% inhibition – in experiment [1] is 100 to 500 nM; in experiment [2], > 1000 nM.
For the compound `COC(=O)N1Cc2cc(Cl)ccc2-n2c(C3CC4(C3)CN(c3ncccc3F)C4)nnc2C1C` (centres unmarked) [compound 182], the figures for the IC50 in experiment [1] and in experiment [2] were 500 to 1000 nM and > 1000 nM, respectively.
For the compound `CC1c2nnc(C3CC4(C3)CN(c3ncc(F)cn3)C4)n2-c2ccc(Cl)cc2CN1C(=O)OC(CF)CF` (centres unmarked) [compound 194], the IC50 in experiment [1] and in experiment [2] was > 1000 nM each time.
